Results on twelve compounds are retold here after patent US6762170B1, “2-(purin-9-yl)-tetrahydrofuran-3,4-diol derivatives” (SmithKlineBeecham Corporation, priority 1998, dated 2004).

Type in all cases: cell-based
For one assay, the target named is T1, Adenosine 2a receptor (Homo sapiens, UniProt P29274).
T1 construct: expressed in transfected cells; host or cells: Chinese hamster ovary (CHO) cells, co-transfected with a CRE-SPAP reporter
Kind of assay: Agonist activity against adenosine 2a receptor subtype (CHO cells, cAMP response element/SPAP reporter). The note with it: EC50 ratio to NECA; transfected CHO cells, basal cAMP reflected by SPAP. In a few lines: (§1)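 CHO cells expressed the human receptor plus a cAMP response element–driven SPAP reporter. Agonism was measured as SPAP change from forskolin-enhanced cAMP for A1 and A3, and from basal cAMP for A2a. EC50 is expressed as a ratio to that of NECA.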

A further assay has as its target T2, Adenosine 3 receptor (Homo sapiens, UniProt P0DMS8).
T2 construct: expressed in transfected cells; host or cells: Chinese hamster ovary (CHO) cells, co-transfected with a CRE-SPAP reporter
T2 sequence (P0DMS8 1-318): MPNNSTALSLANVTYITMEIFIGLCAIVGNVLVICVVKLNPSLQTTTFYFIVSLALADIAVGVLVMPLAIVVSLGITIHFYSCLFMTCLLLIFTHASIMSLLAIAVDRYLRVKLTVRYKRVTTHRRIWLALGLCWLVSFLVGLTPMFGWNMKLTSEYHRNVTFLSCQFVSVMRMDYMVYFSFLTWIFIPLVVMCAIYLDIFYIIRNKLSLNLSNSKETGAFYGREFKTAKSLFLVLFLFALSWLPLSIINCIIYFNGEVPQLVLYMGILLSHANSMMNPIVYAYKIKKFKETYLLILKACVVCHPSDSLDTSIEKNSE
Kind of assay: Agonist activity against adenosine 3 receptor subtype (CHO cells, forskolin-enhanced cAMP, SPAP reporter). The note with it: EC50 ratio to NECA; transfected CHO cells, forskolin-enhanced cAMP reflected by SPAP. In a few lines: as §1

In the next assay the target is T3, Adenosine 1 receptor (Homo sapiens, UniProt P30542).
T3 construct: expressed in transfected cells; host or cells: Chinese hamster ovary (CHO) cells, co-transfected with a CRE-SPAP reporter
T3 sequence (P30542 1-326): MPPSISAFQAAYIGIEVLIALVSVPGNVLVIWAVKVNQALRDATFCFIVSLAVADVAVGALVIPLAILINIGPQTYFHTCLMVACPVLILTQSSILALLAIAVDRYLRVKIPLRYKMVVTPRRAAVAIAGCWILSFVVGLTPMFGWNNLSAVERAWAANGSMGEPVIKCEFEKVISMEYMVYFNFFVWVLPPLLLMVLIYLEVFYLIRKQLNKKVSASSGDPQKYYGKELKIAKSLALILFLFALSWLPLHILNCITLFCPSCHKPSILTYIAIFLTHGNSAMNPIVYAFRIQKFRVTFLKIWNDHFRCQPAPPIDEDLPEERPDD
Kind of assay: Agonist activity against adenosine 1 receptor subtype (CHO cells, forskolin-enhanced cAMP, SPAP reporter). The note with it: EC50 ratio to NECA; transfected CHO cells, forskolin-enhanced cAMP reflected by SPAP. The gist of the method:
as §1

T1 sequence (P29274 whole entry): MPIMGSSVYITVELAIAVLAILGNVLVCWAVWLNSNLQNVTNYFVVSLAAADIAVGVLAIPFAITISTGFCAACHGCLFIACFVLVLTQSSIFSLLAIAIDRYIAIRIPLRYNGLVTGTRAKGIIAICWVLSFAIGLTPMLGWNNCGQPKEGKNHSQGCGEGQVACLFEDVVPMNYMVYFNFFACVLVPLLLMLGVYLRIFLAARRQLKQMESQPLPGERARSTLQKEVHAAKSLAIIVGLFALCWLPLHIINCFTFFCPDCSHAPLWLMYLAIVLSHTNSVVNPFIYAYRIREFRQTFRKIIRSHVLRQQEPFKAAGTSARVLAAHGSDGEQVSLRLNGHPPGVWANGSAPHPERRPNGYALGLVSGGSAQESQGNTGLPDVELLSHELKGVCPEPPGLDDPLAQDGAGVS

Consider `CCc1cc(C2OC(n3cnc4c(NC(CO)Cc5ccccc5)nc(NCCN5CCCC5)nc43)C(O)C2O)on1` [Example 63, (2S,3S,4R,5R)-2-(3-Ethyl-isoxazol-5-yl)-5-[6-(1S-hydroxymethyl-2-phenyl-ethylamino)-2-(2-pyrrolidin-1-yl-ethylamino)-purin-9-yl]-tetrahydro-furan-3,4-diol diformate], for which the “A2a (EC50 values as a ratio of that of NECA)” value at Adenosine 2a receptor was found to be 10.57. In addition, the “A3 (EC50 values as a ratio of that of NECA)” value at Adenosine 3 receptor was over 262. Besides, the “A1 (EC50 values as a ratio of that of NECA)” value on Adenosine 1 receptor is given as 148.43.

As for `CCc1cc(C2OC(n3cnc4c(NC(CO)Cc5ccccc5)nc(NCCN)nc43)C(O)C2O)on1` [Example 64, (2R,3R,4S,5S)-2-[2-(2-Amino-ethylamino)-6-(1S-hydroxymethyl-2-phenyl-ethylamino)-purin-9-yl]-5-(3-ethyl-isoxazol-5-yl)-tetrahydro-furan-3,4-diol diformate], the “A2a (EC50 values as a ratio of that of NECA)” value on Adenosine 2a receptor was 16.03. In addition, the “A3 (EC50 values as a ratio of that of NECA)” value on Adenosine 3 receptor is given as over 262. For the same compound, at Adenosine 1 receptor, the “A1 (EC50 values as a ratio of that of NECA)” value is given as 44.21.

Regarding `CCC(CC)Nc1nc(NCCN2CCCCC2)nc2c1ncn2C1OC(c2cc(Br)no2)C(O)C1O.O=CO.O=CO` [Example 67, (2S,3S,4R,5R)-2-(3-Bromo-isoxazol-5-yl)-5-[6-(1-ethyl-propylamino)-2-(2-piperidin-1-yl-ethylamino)-purin-9-yl]-tetrahydro-furan-3,4-diol diformate], on Adenosine 2a receptor, the “A2a (EC50 values as a ratio of that of NECA)” value was 2.59. Also, the “A3 (EC50 values as a ratio of that of NECA)” value at Adenosine 3 receptor is recorded as over 238. Also, the “A1 (EC50 values as a ratio of that of NECA)” value on Adenosine 1 receptor amounted to 219.1.

Regarding `CCOC(=O)c1cc(C2OC(n3cnc4c(NC(CC)CC)nc(NCCc5cn(C)cn5)nc43)C(O)C2O)on1` (stereo not drawn) [Example 68, 5-(5R-{6-(1-Ethyl-propylamino)-2-[2-(1-methyl-1H-imidazol-4-yl)-ethylamino]-purin-9-yl}-3S,4R-dihydroxy-tetrahydro-furan-2S-yl)-isoxazole-3-carboxylic acid ethyl ester diformate], the “A2a (EC50 values as a ratio of that of NECA)” value at Adenosine 2a receptor amounted to 30.23. Also, at Adenosine 3 receptor, the “A3 (EC50 values as a ratio of that of NECA)” value was over 113. Also, at Adenosine 1 receptor, the “A1 (EC50 values as a ratio of that of NECA)” value is 60.30.

Take `CCc1cc(C2OC(n3cnc4c(NC(CO)C(C)C)nc(NCCN5CCCC5)nc43)C(O)C2O)on1` [Example 69, (2S,3S,4R,5R)-2-(3-Ethyl-isoxazol-5-yl)-5-[6-(1S-hydroxymethyl-2-methyl-propylamino)-2-(2-pyrrolidin-1-yl-ethylamino)-purin-9-yl]-tetrahydro-furan-3,4-diol diformate]: the “A2a (EC50 values as a ratio of that of NECA)” value at Adenosine 2a receptor stood at 23.73. Besides, the “A3 (EC50 values as a ratio of that of NECA)” value on Adenosine 3 receptor was over 180. Besides, the “A1 (EC50 values as a ratio of that of NECA)” value on Adenosine 1 receptor is reported as 298.75.

Regarding `CCc1cc(C2OC(n3cnc4c(NC(CO)C(C)C)nc(NCCN5CCCCC5)nc43)C(O)C2O)on1` [Example 70, (2S,3S,4R,5R)-2-(3-Ethyl-isoxazol-5-yl)-5-[6-(1(1S-hydroxymethyl-2-methyl-propylamino)-2-(2-piperidin-1-yl-ethylamino)-purin-9-yl]-tetrahydro-furan-3,4-diol diformate], the “A2a (EC50 values as a ratio of that of NECA)” value at Adenosine 2a receptor was found to be 27.39. Further, the “A3 (EC50 values as a ratio of that of NECA)” value at Adenosine 3 receptor was over 184. Further, the “A1 (EC50 values as a ratio of that of NECA)” value at Adenosine 1 receptor is recorded as 149.86.

For `CCc1cc(C2OC(n3cnc4c(NC(CO)C(C)C)nc(NCCNc5ccccn5)nc43)C(O)C2O)on1` [Example 71, (2S,3S,4R,5R)-2-(3-Ethyl-isoxazol-5-yl)-5-{6-(1S-hydroxymethyl-2-methyl-propylamino)-2-[2-(pyridin-2-ylamino)-ethylamino]-purin-9-yl}-tetrahydro-furan-3,4-diol diformate], on Adenosine 2a receptor, the “A2a (EC50 values as a ratio of that of NECA)” value was found to be 12.75. Further, on Adenosine 3 receptor, the “A3 (EC50 values as a ratio of that of NECA)” value was over 184. The “A1 (EC50 values as a ratio of that of NECA)” value at Adenosine 1 receptor is reported as 79.51.

For `CCc1cc(C2OC(n3cnc4c(NC(CO)C(C)C)nc(NC(CO)Cc5ccccc5)nc43)C(O)C2O)on1` [Example 72, (2S,3S,4R,5R)-2-(3-Ethyl-isoxazol-5-yl)-5-{6-(1S-hydroxymethyl-2-methyl-propylamino)-2-(1S-hydroxymethyl-2-phenyl-ethylamino)-purin-9-yl}-tetrahydro-furan-3,4-diol diformate], at Adenosine 2a receptor, the “A2a (EC50 values as a ratio of that of NECA)” value is listed as 5.39. The “A3 (EC50 values as a ratio of that of NECA)” value at Adenosine 3 receptor is listed as over 158. On Adenosine 1 receptor, the “A1 (EC50 values as a ratio of that of NECA)” value is given as 23.79.

For “(2R,3R,4S,5S)-2-[2-Ethylamino-6-(3-iodo-benzylamino)-purin-9-yl]-5-(3-ethyl-isoxazol-5-yl)-tetrahydro-furan-3,4-diol formate [Example 66]”, the “A2a (EC50 values as a ratio of that of NECA)” value at Adenosine 2a receptor is 8.32. For the same compound, the “A3 (EC50 values as a ratio of that of NECA)” value at Adenosine 3 receptor was over 262. Moreover, the “A1 (EC50 values as a ratio of that of NECA)” value on Adenosine 1 receptor was determined as 189.98.

With “(2R,3R,4S,5S)-2-{6-(1-Ethyl-propylamino)-2-[2-(1-methyl-1H-imidazol-4-yl)-ethylamino]-purin-9-yl}-5-(3-propyl-isoxazol-5-yl)-tetrahydro-furan-3,4-diol diformate [Example 60]”, on Adenosine 2a receptor, the “A2a (EC50 values as a ratio of that of NECA)” value was determined as 4.53. For the same compound, at Adenosine 3 receptor, the “A3 (EC50 values as a ratio of that of NECA)” value is “≧248.4”. In addition, the “A1 (EC50 values as a ratio of that of NECA)” value at Adenosine 1 receptor came out at 155.86.

“(2R,3R,4S,5S)-2-{6-(1-Ethyl-propylamino)-2-[2-(1-methyl-1H-imidazol-4-yl)-ethylamino]-purin-9yl}-5-(3-methyl-isoxazol-5-yl)-tetrahydro-furan-3,4-diol diformate [Example 59]”: on Adenosine 2a receptor, the “A2a (EC50 values as a ratio of that of NECA)” value stood at 0.13. Besides, the “A3 (EC50 values as a ratio of that of NECA)” value on Adenosine 3 receptor is on record as over 385. Further, the “A1 (EC50 values as a ratio of that of NECA)” value at Adenosine 1 receptor is recorded as 194.3.

In the case of “(2S,3S,4R,5R)-2-(3-Ethyl-isoxazol-5yl)-5-[6-(3-iodo-benzylamino)-2-(2-piperidin-1-yl-ethylamino)-purin-9-yl]-tetrahydro-furan-3,4-diol diformate [Example 65]”, on Adenosine 2a receptor, the “A2a (EC50 values as a ratio of that of NECA)” value was determined as 4.74. Also, the “A3 (EC50 values as a ratio of that of NECA)” value at Adenosine 3 receptor is given as over 262. The “A1 (EC50 values as a ratio of that of NECA)” value at Adenosine 1 receptor is 128.27.
